Reference: patent publication US20170266204A1 (ARNO THERAPEUTICS, INC., priority 2016, published 2017)

How the values were obtained:
[1] = in vitro; conditions: for P450 enzyme catalyzing the metabolism: microsomes; for Vmax for metabolism: Table 1 Vmax 1
Experimental: Mohutsky M, Wrighton S, Ring B. In vitro metabolism: subcellular fractions. In: Pearson P, Wienkers L, editors. Handbook of drug metabolism. New York: Informa Healthcare; 2009. pp. 445-464. […] The incubation was conducted at various time points 0-60 min at 37° C. At the end of incubation, the reactions were quenched, processed, and analyzed by LC-MS/MS.

[2] = Concentration in blood circulation after dosing
[3] = target: T1, progesterone receptor (PR) (Homo sapiens, UniProt P06401); test: PRE-luciferase reporter assay in 293T and WMPY cells transfected with PR; format: cell-based; conditions: 100 nM
T1 construct: expressed in transfected cells; host or cells: 293T (human embryonic kidney cells) and WMPY (prostatic stromal cell line)
T1 sequence (P06401 1-933): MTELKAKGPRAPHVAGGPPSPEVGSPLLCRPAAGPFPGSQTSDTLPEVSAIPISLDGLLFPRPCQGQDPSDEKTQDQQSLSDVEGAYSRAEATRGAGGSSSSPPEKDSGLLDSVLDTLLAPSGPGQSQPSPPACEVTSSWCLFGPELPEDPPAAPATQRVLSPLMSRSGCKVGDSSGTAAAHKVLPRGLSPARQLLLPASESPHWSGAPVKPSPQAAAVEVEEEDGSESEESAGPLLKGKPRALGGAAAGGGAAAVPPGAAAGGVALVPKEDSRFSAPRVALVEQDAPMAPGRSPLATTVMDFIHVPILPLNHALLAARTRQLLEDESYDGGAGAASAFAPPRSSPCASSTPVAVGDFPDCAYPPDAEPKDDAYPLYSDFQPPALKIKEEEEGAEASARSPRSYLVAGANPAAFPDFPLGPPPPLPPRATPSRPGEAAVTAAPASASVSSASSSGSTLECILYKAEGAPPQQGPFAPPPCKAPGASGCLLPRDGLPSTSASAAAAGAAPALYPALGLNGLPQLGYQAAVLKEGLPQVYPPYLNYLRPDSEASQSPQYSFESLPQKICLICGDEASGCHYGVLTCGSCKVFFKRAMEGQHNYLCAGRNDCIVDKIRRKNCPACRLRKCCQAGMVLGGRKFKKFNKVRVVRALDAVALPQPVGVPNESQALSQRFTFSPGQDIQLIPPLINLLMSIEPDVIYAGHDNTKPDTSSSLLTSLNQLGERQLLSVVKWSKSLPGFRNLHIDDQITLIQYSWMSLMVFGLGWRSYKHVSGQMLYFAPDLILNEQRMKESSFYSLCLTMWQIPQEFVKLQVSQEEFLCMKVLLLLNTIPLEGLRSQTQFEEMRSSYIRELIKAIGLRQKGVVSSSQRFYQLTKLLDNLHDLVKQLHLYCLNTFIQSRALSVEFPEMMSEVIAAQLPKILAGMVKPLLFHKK
Experimental: 293T and WMPY cells were transfected with progesterone receptor (PR) and PRE-luciferase reporter. […] Experiments were repeated in triplicate. […] Because of the metabolic stability of M1 compared to ONA, a blood circulation of 100 nM M1 can be achieved after dosing M1 at 1 mg.

[4] = Metabolite profile by LC-MS in pooled urine of chimeric mice with humanized liver after repeated oral onapristone; format: in vivo; conditions: onapristone 30 mg/kg/day, D11
Experimental: Metabolites were identified using liquid chromatography-mass spectrometry (LC-MS) and mass spectroscopy on pooled plasma, urine, and liver samples. Twenty-seven metabolites were identified in urine samples across dose and sampling time (e.g., 0-24 hours of dosing for each time point).
Mice with humanized livers were generated as described by Meuleman et al., Hepatology 2005, 41 (4):847-856. This humanized liver model is routinely used to assess the metabolism and toxicities of drugs. Kamimura H, Nakada N, Suzuki K, et al. Assessment of chimeric mice with humanized liver as a tool for predicting circulating human metabolites. Drug Metab Pharmacokinet 2010;25(3):223-235. Two weeks following birth, mice were transplanted with primary hepatocytes isolated from the liver of a donor (purchased from BD Genetest). All animals were housed and kept under standard animal protocols. Animals also were observed during the experiment for signs of illness, abnormal behavior and appearance, and any sign of toxicity, or mortality. Animals were treated orally by gavage with 0, 10, and 30 mg/kg of drug once a day up to 31 days. At the end of treatments, blood samples, urine, and liver were collected and processed for LC-MS/MS metabolite identification and profiling. […]

[5] = format: in vitro ADME, human
Excerpt: In: Pearson P, Wienkers L, editors. Handbook of drug metabolism. New York: Informa Healthcare; 2009. pp. 445-464.

SMILES	P450 enzyme catalyzing the metabolism ([1]; both, human)	Vmax 1 ([1]; female human liver microsomes) [pmol/min/mg]	Vmax 2 ([1]; female human liver microsomes) [pmol/min/mg]	Vmax for metabolism ([1]; females)	Km ([1]; human, Km 1) [µM]	Km ([1]; human, Km 2) [µM]	Vmax 1 ([1]; male human liver microsomes) [pmol/min/mg]	Vmax 2 ([1]; male human liver microsomes) [pmol/min/mg]	Km ([1]; male, human, Km 1) [µM]	Km ([1]; male, human, Km 2) [µM]	Vmax for metabolism ([1]; males)	concentration that can be achieved in blood circulation ([2]; after dosing M1 at 1 mg, inferred from metabolic stability of M1) [nM]	concentration achieved in blood circulation ([2]; after dosing onapristone at 10 mg QD) [nM]	inhibition of PR transcriptional activity [3]	P450 enzyme catalyzing the metabolism [1]	metabolite detected by LC-MS in urine [4]	number of metabolites formed in vitro [5]
CNc1ccc([C@H]2C[C@]3(C)[C@@H](CC[C@]3(O)CCCO)[C@@H]3CCC4=CC(=O)CCC4=C32)cc1 [Metabolite M1, (8S, 11R,13R,14S,17S)-17-hydroxy-17-(3-hydroxypropyl)-13-methyl-11-(4-(methylamino)phenyl)-6,7,8,11,12,13,14,15,16,17-decahydro-1H-cyclopenta[a]phenanthren-3(2H)-one]	CYP3A and CYP2C	106	738	106 pmol/min/mg microsomal protein	0.75	175	72	748	0.96	129	72 pmol/min/mg microsomal protein	100	10	fully inhibit			
CN(C)c1ccc([C@H]2C[C@]3(C)[C@@H](CC[C@]3(O)CCCO)[C@@H]3CCC4=CC(=O)CCC4=C32)cc1 [onapristone, Onapristone, reference compound]		1517	8715	1517 pmol/min/mg microsomal protein			1292	7213			1292 pmol/min/mg microsomal protein			fully inhibit	CYP3A	Ls	nine
